Results from US9889146B2, “Benzoxaborole compounds and uses thereof” (priority 2012, dated 2018).
≈ marks a conversion by molar mass, not a printed value. Read-outs that look alike come from different tables or passages of the source.

Key:
Type in all cases: cell-based
Enterobacteriaceae = assay: organism not typed; conditions: Enterobacteriaceae; for MIC90: 2029 isolates
E. coli (WT) = assay: microbe, parasite or virus in culture; conditions: E. coli (WT); for MIC90: 214 isolates
E. coli (ESBL) = assay: microbe, parasite or virus in culture; conditions: E. coli (ESBL); for MIC90: 27 isolates
Klebsiella spp. (WT) = assay: microbe, parasite or virus in culture; conditions: Klebsiella spp. (WT); for MIC90: 159 isolates
Klebsiella spp. (ESBL) = assay: microbe, parasite or virus in culture; conditions: Klebsiella spp. (ESBL); for MIC90: 71 isolates
Klebsiella spp. (KPC) = assay: microbe, parasite or virus in culture; conditions: Klebsiella spp. (KPC); for MIC90: 26 isolates
[1] = test system: Enterobacter aerogenes (WT); assay: microbe, parasite or virus in culture; conditions: Enterobacter aerogenes (WT); for MIC90: 199 isolates
[2] = test system: Enterobacter aerogenes (AmpC); assay: microbe, parasite or virus in culture; conditions: Enterobacter aerogenes (AmpC); for MIC90: 51 isolates
[3] = test system: Enterobacter cloacae (WT); assay: microbe, parasite or virus in culture; conditions: for MIC90: 202 isolates
[4] = test system: Enterobacter cloacae (AmpC); assay: microbe, parasite or virus in culture; conditions: Enterobacter cloacae (AmpC); for MIC90: 50 isolates
[5] = test system: Citrobacter freundii (AmpC); assay: microbe, parasite or virus in culture; conditions: Citrobacter freundii (AmpC); for MIC90: 60 isolates
[6] = test system: Morganella morganii (AmpC); assay: microbe, parasite or virus in culture; conditions: Morganella morganii (AmpC); for MIC90: 18 isolates
Proteus mirabilis (WT) = assay: microbe, parasite or virus in culture; conditions: Proteus mirabilis (WT); for MIC90: 235 isolates
Proteus vulgaris (WT) = assay: microbe, parasite or virus in culture; conditions: Proteus vulgaris (WT); for MIC90: 41 isolates
Providencia spp.(all) = assay: microbe, parasite or virus in culture; conditions: Providencia spp.(all); for MIC90: 68 isolates
S. marcescens (AmpC) = assay: microbe, parasite or virus in culture; conditions: S. marcescens (AmpC); for MIC90: 26 isolates
[7] = test system: E. coli ATCC 25922 wild type and mutants; assay: MIC, wild type and GSK2251052 resistant mutants; conditions: for MIC: Escherichia coli
Experimental: (§1) Spontaneous Resistance Frequency was determined in vitro for GSK2251052 and the resistance mutants in E. coli ATCC 25922, K. pneumoniae ATCC 13883, and P. aeruginosa ATCC 27853 strains were characterized. GSK2251052 was prepared as described in U.S. Pat. No. 7,816,344 (the entire contents of which are hereby incorporated by reference herein). LB broth, Mueller Hinton II broth (adjusted), and Difco noble agar were obtained from Becton Dickinson (Cockeysville, Md., USA). M9 minimal broth containing 1×M9 salt, 0.5 μg/ML thiamine, 1 mM MgSO4, 0.1 mM CaCl2, 2% glucose, was obtained from Teknova (Hollister, Calif., USA). Antibacterial agents ciprofloxacin, ceftazidime, chloramphenicol, gentamycin, kanamycin, polymixin B, tobramycin and trimethoprim, and amino acids were obtained from Sigma Chemicals (St. Louis, Mo., USA). Strains were obtained from ATCC (Manassas, Va., USA).
(§2) Susceptibility tests were performed following the recommendations for aerobic bacteria (M7-A7) from the Clinical and Laboratories Standards Institute (CLSI).
(§3) Laboratory generated mutants resistant to GSK2251052 contain mutations in the editing domain of LeuRS. Six to ten GSK2251052 resistant colonies of E. coli ATCC 25922, K. pneumoniae ATCC 13883 and P. aeruginosa ATCC 27853 were selected for further analysis and their MICs to GSK2251052 were determined (Table 4-7).

[8] = test system: K. pneumoniae ATCC 13883 wild type and mutants; assay: MIC, wild type and GSK2251052 resistant mutants; conditions: for MIC: Klebsiella pneumoniae
Experimental: as §1, §2, §3

[9] = test system: P. aeruginosa ATCC 27853 wild type and mutants; assay: MIC, wild type and GSK2251052 resistant mutants; conditions: for MIC: Pseudomonas aeruginosa
Experimental: as §1, §2, §3

[10] = test system: E. coli ATCC 25922, K. pneumoniae ATCC 13883 and P. aeruginosa ATCC 27853; assay: MIC, three strains and their mutants summarised; conditions: MIC in E. coli, P. aeruginosa and K. pneumoniae mutants versus wild-type
Experimental: as §1, §2, §3
GSK2251052 resistant mutants were not cross-resistant to commercial antibiotics.

E. coli ATCC 25922 = assay: Spontaneous frequency of resistance; conditions: 24 h
Experimental: as §1
(§4) Selection of resistance to GSK2251052 was attempted by spreading various amounts of bacteria onto MHBII noble agar plates containing 4×MIC (minimum inhibitory concentration) or 10×MIC of GSK2251052. Colonies were counted after 24 hours and 48 hours incubation at 37° C. The resistance of these colonies was confirmed by their ability to grow on plates containing GSK2251052 at either 4× or 10×MIC. Frequency of resistance was determined by dividing the number of resistant mutants by the total number of cells plated as determined by plating dilutions of the overnight culture on LB plates.

K. pneumoniae ATCC 13883 = assay: Spontaneous frequency of resistance; conditions: 24 h
Experimental: as §1, §4

P. aeruginosa ATCC 27853 = assay: Spontaneous frequency of resistance; conditions: 24 h
Experimental: as §1, §4

With Polymixin B the MIC90 (Enterobacteriaceae) was > 8 µg/mL, the “susceptibility category of MIC90” value (Enterobacteriaceae; polymixinB criteria) was “*** (resistant ≧8 μg/mL)” and the MIC90 (E. coli (WT)) was 1 µg/mL. The “susceptibility category of MIC90” value (E. coli (WT); polymixinB criteria) was “* (susceptible ≦2 μg/mL)”, the MIC90 (E. coli (ESBL)) was 2 µg/mL and the “susceptibility category of MIC90” value (E. coli (ESBL); polymixinB criteria) was “* (susceptible ≦2 μg/mL)”. The MIC90 (Klebsiella spp. (WT)) was 1 µg/mL, the “susceptibility category of MIC90” value (Klebsiella spp. (WT); polymixinB criteria) was “* (susceptible ≦2 μg/mL)” and the MIC90 (Klebsiella spp. (ESBL)) was 2 µg/mL. For the same compound, the “susceptibility category of MIC90” value (Klebsiella spp. (ESBL); polymixinB criteria) was “* (susceptible ≦2 μg/mL)”, the MIC90 (Klebsiella spp. (KPC)) was > 8 µg/mL and the “susceptibility category of MIC90” value (Klebsiella spp. (KPC); polymixinB criteria) was “*** (resistant ≧8 μg/mL)”. For the same compound, the MIC90 [1] was 4 µg/mL, the “susceptibility category of MIC90” value ([1]; polymixinB criteria) was “** (intermediate 4 μg/mL)” and the MIC90 [2] was 2 µg/mL. The “susceptibility category of MIC90” value ([2]; polymixinB criteria) was “* (susceptible ≦2 μg/mL)”, the MIC90 [3] was > 8 µg/mL and the “susceptibility category of MIC90” value ([3]; polymixinB criteria) was “*** (resistant ≧8 μg/mL)”. For the same compound, the MIC90 [4] was 4 µg/mL, the “susceptibility category of MIC90” value ([4]; polymixinB criteria) was “** (intermediate 4 μg/mL)” and the MIC90 [5] was 1 µg/mL. The “susceptibility category of MIC90” value ([5]; polymixinB criteria) was “* (susceptible ≦2 μg/mL)”, the MIC90 [6] was > 8 µg/mL and the “susceptibility category of MIC90” value ([6]; polymixinB criteria) was “*** (resistant ≧8 μg/mL)”. The MIC90 (Proteus mirabilis (WT)) was > 8 µg/mL, the “susceptibility category of MIC90” value (Proteus mirabilis (WT); polymixinB criteria) was “*** (resistant ≧8 μg/mL)” and the MIC90 (Proteus vulgaris (WT)) was > 8 µg/mL. The “susceptibility category of MIC90” value (Proteus vulgaris (WT); polymixinB criteria) was “*** (resistant ≧8 μg/mL)”, the MIC90 (Providencia spp.(all)) was 8 µg/mL and the “susceptibility category of MIC90” value (Providencia spp.(all); polymixinB criteria) was “*** (resistant ≧8 μg/mL)”. The MIC90 (S. marcescens (AmpC)) was > 8 µg/mL, the “susceptibility category of MIC90” value (S. marcescens (AmpC); polymixinB criteria) was “*** (resistant ≧8 μg/mL)” and the MICs ([7]; E wt) was 4 µg/mL. For the same compound, the MICs ([7]; mutant E 101) was 4 µg/mL, the MICs ([7]; mutant E 102) was 4 µg/mL and the MICs ([7]; mutant E 107) was 4 µg/mL. For the same compound, the MICs ([8]; K wt.) was 4 µg/mL, the MICs ([8]; mutant K 104) was 8 µg/mL and the MICs ([8]; mutant K 105) was 4 µg/mL. It also gave an MICs ([8]; mutant K 107) of 2 µg/mL, an MICs ([8]; mutant K 108) of 4 µg/mL and an MICs ([8]; mutant K 110) of 4 µg/mL. It also gave an MICs ([9]; P wt.) of 4 µg/mL, an MICs ([9]; mutant P 101) of 4 µg/mL and an MICs ([9]; mutant P106) of 2 µg/mL. The MICs ([9]; mutant P108) was 4 µg/mL and the “cross-resistance of GSK2251052 resistant mutants” value (“cross-resistance” for short) [10] was “did not have any significant difference in MIC values than wild-type”.
Gentamicin was tested, and the MIC90 (Enterobacteriaceae) was 16 µg/mL, the MIC90 (E. coli (WT)) was > 16 µg/mL and the MIC90 (E. coli (ESBL)) was > 16 µg/mL. The MIC90 (Klebsiella spp. (WT)) was 1 µg/mL, the MIC90 (Klebsiella spp. (ESBL)) was > 16 µg/mL and the MIC90 (Klebsiella spp. (KPC)) was 16 µg/mL. The MIC90 [1] was 1 µg/mL, the MIC90 [2] was 4 µg/mL and the MIC90 [3] was 1 µg/mL. The MIC90 [4] was > 16 µg/mL, the MIC90 [5] was > 16 µg/mL and the MIC90 [6] was > 16 µg/mL. The MIC90 (Proteus mirabilis (WT)) was 4 µg/mL, the MIC90 (Proteus vulgaris (WT)) was 2 µg/mL and the MIC90 (Providencia spp.(all)) was > 16 µg/mL. The MIC90 (S. marcescens (AmpC)) was > 16 µg/mL, the MICs ([7]; E wt) was 2 µg/mL and the MICs ([7]; mutant E 101) was 1 µg/mL. The MICs ([7]; mutant E 102) was 1 µg/mL, the MICs ([7]; mutant E 107) was 1 µg/mL and the MICs ([8]; K wt.) was 1 µg/mL. It also gave an MICs ([8]; mutant K 104) of 1 µg/mL, an MICs ([8]; mutant K 105) of 1 µg/mL and an MICs ([8]; mutant K 107) of 1 µg/mL. For the same compound, the MICs ([8]; mutant K 108) was 0.5 µg/mL, the MICs ([8]; mutant K 110) was 1 µg/mL and the MICs ([9]; P wt.) was 8 µg/mL. The MICs ([9]; mutant P 101) was 4 µg/mL, the MICs ([9]; mutant P106) was 4 µg/mL and the MICs ([9]; mutant P108) was 4 µg/mL. For the same compound, the “cross-resistance” value [10] was “did not have any significant difference in MIC values than wild-type”.
In the case of `O=C(O)c1cn(C2CC2)c2cc(N3CCNCC3)c(F)cc2c1=O` [Ciprofloxacin], the “Frequency of Resistance” value (E. coli ATCC 25922; 4 X MIC) was 2 × 10^−8, the “Frequency of Resistance” value (E. coli ATCC 25922; 10 X MIC) was <4 × 10^−9 and the “Frequency of Resistance” value (K. pneumoniae ATCC 13883; 4 X MIC) was 5 × 10^−7. For the same compound, the “Frequency of Resistance” value (K. pneumoniae ATCC 13883; 10 X MIC) was <5 × 10^−9, the “Frequency of Resistance” value (P. aeruginosa ATCC 27853; 4 X MIC) was 1 × 10^−8 and the “Frequency of Resistance” value (P. aeruginosa ATCC 27853; 10 X MIC) was <1 × 10^−9. The MIC ([7]; ATCC25922, E wt, read-out: MICs) was 0.008 µg/mL (≈ 0.0241 µM), the MIC ([7]; ATCC25922, read-out: MICs, mutant E 101) was 0.008 µg/mL (≈ 0.0241 µM) and the MIC ([7]; ATCC25922, read-out: MICs, mutant E 102) was 0.008 µg/mL (≈ 0.0241 µM). For the same compound, the MIC ([7]; ATCC25922, read-out: MICs, mutant E 107) was 0.015 µg/mL (≈ 0.0453 µM), the MIC ([8]; ATCC13883, K wt., read-out: MICs) was 0.125 µg/mL (≈ 0.377 µM) and the MIC ([8]; ATCC13883, read-out: MICs, mutant K 104) was 0.03 µg/mL (≈ 0.0905 µM). The MIC ([8]; ATCC13883, read-out: MICs, mutant K 105) was 0.06 µg/mL (≈ 0.181 µM), the MIC ([8]; ATCC13883, read-out: MICs, mutant K 107) was 0.06 µg/mL (≈ 0.181 µM) and the MIC ([8]; ATCC13883, read-out: MICs, mutant K 108) was 0.03 µg/mL (≈ 0.0905 µM). The MIC ([8]; ATCC13883, read-out: MICs, mutant K 110) was 0.03 µg/mL (≈ 0.0905 µM), the MIC ([9]; ATCC27853, P wt., read-out: MICs) was 0.5 µg/mL (≈ 1.51 µM) and the MIC ([9]; ATCC27853, read-out: MICs, mutant P 101) was 1 µg/mL (≈ 3.02 µM). For the same compound, the MIC ([9]; ATCC27853, read-out: MICs, mutant P106) was 1 µg/mL (≈ 3.02 µM), the MIC ([9]; ATCC27853, read-out: MICs, mutant P108) was 0.5 µg/mL (≈ 1.51 µM) and the “cross-resistance” value [10] was “did not have any significant difference in MIC values than wild-type”.
